Source: ChEMBL document CHEMBL1201862, “PubChem BioAssay data set” (2004)
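Test compounds were applied to cells in 96-well plates for 48 hours at 5 doses. Abbreviation: GI50, concentration required for 50% inhibition of growth.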 Activity calls are given as the source filed them. No stated cut-off is given here; in the data, active = GI50 up to about 1.1 µM and inactive = higher.

Experiments:
Experiment in all cases: DTP human tumour cell line panel, 48 h
A498 = system: A498
BT-549 = system: BT-549
CAKI-1 = system: CAKI-1
CCRF-CEM = system: CCRF-CEM
COLO 205 = system: COLO 205
DU-145 = system: DU-145
HCT-116 = system: HCT-116
HCT-15 = system: HCT-15
HL-60 = system: HL-60
HOP-62 = system: HOP-62
HOP-92 = system: HOP-92
HT-29 = system: HT-29
Hs-578T = system: Hs-578T
IGROV-1 = system: IGROV-1
K562 = system: K562
KM12 = system: KM12
LOX IMVI = system: LOX IMVI
M14 = system: M14
MCF7 = system: MCF7
MDA-MB-231 = system: MDA-MB-231
MDA-MB-435 = system: MDA-MB-435
MDA-N = system: MDA-N
MOLT-4 = system: MOLT-4
Malme-3M = system: Malme-3M
NCI-H226 = system: NCI-H226
NCI-H23 = system: NCI-H23
NCI-H460 = system: NCI-H460
NCI/ADR-RES = system: NCI/ADR-RES
OVCAR-3 = system: OVCAR-3
OVCAR-4 = system: OVCAR-4
OVCAR-5 = system: OVCAR-5
OVCAR-8 = system: OVCAR-8
PC-3 = system: PC-3
RPMI-8226 = system: RPMI-8226
RXF 393 = system: RXF 393
SF-295 = system: SF-295
SK-MEL-28 = system: SK-MEL-28
SK-MEL-2 = system: SK-MEL-2
SK-MEL-5 = system: SK-MEL-5
SK-OV-3 = system: SK-OV-3
SN12C = system: SN12C
SNB-19 = system: SNB-19
SNB-75 = system: SNB-75
SR = system: SR
SW-620 = system: SW-620
TK-10 = system: TK-10
U-251 = system: U-251
UACC-257 = system: UACC-257
UACC-62 = system: UACC-62
UO-31 = system: UO-31
786-0 = system: 786-0
ACHN = system: ACHN
EKVX = system: EKVX
HCC 2998 = system: HCC 2998
SF-268 = system: SF-268
A549 = system: A549
NCI-H522 = system: NCI-H522
SF-539 = system: SF-539

## CC(C)(C)[Si](C)(C)OCC1OC(n2cnc3c(N)ncnc32)C2OC(=S)OC12 (centres undefined)
A498
  GI50: 52.7 µM (inactive)
BT-549
  GI50: 25.1 µM (inactive)
CAKI-1
  GI50: 41.3 µM (inactive)
CCRF-CEM
  GI50: 12.7 µM (inactive)
COLO 205
  GI50: 35.6 µM (inactive)
DU-145
  GI50: 25.1 µM (inactive)
HCT-116
  GI50: 27.4 µM (inactive)
HCT-15
  GI50: 26.2 µM
HL-60
  GI50: > 100 µM (inactive)
HOP-62
  GI50: 36.7 µM (inactive)
HOP-92
  GI50: 70.8 µM (inactive)
HT-29
  GI50: 29.4 µM (inactive)
Hs-578T
  GI50: 41.5 µM (inactive)
IGROV-1
  GI50: 25 µM (inactive)
K562
  GI50: 4.84 µM (inactive)
KM12
  GI50: 35 µM (inactive)
LOX IMVI
  GI50: 28.7 µM (inactive)
M14
  GI50: 45.5 µM (inactive)
MCF7
  GI50: 34.6 µM (inactive)
MDA-MB-231
  GI50: 27.7 µM (inactive)
MDA-MB-435
  GI50: 19.9 µM (inactive)
MDA-N
  GI50: 27.2 µM (inactive)
MOLT-4
  GI50: 16.1 µM (inactive)
Malme-3M
  GI50: 23.6 µM (inactive)
NCI-H226
  GI50: 29.4 µM (inactive)
NCI-H23
  GI50: 21.8 µM (inactive)
NCI-H460
  GI50: 32.7 µM (inactive)
NCI/ADR-RES
  GI50: 23.5 µM (inactive)
OVCAR-3
  GI50: 29.2 µM (inactive)
OVCAR-4
  GI50: 81.3 µM (inactive)
OVCAR-5
  GI50: 26.7 µM (inactive)
OVCAR-8
  GI50: 35.1 µM (inactive)
PC-3
  GI50: 22 µM (inactive)
RPMI-8226
  GI50: 37.9 µM (inactive)
RXF 393
  GI50: 43.9 µM (inactive)
SF-295
  GI50: 37.4 µM (inactive)
SK-MEL-28
  GI50: 38.4 µM (inactive)
SK-MEL-2
  GI50: 26 µM (inactive)
SK-MEL-5
  GI50: 17 µM (inactive)
SK-OV-3
  GI50: 19.5 µM (inactive)
SN12C
  GI50: 35.5 µM (inactive)
SNB-19
  GI50: 52.1 µM (inactive)
SNB-75
  GI50: 29.3 µM (inactive)
SR
  GI50: 38.5 µM (inactive)
SW-620
  GI50: 32.7 µM (inactive)
TK-10
  GI50: > 100 µM (inactive)
U-251
  GI50: 25.2 µM (inactive)
UACC-257
  GI50: 43.3 µM (inactive)
UACC-62
  GI50: 23.8 µM (inactive)
UO-31
  GI50: 23.5 µM (inactive)

## CCOCc1c(C)cc(C)c(C2C(C(=O)c3ccccc3)N3c4ccccc4C=CC3C2(C#N)C(=O)OCC)c1C (centres undefined)
786-0
  GI50: 45 µM (inactive)
A498
  GI50: > 100 µM (inactive)
ACHN
  GI50: 50.9 µM (inactive)
BT-549
  GI50: 28.1 µM (inactive)
CAKI-1
  GI50: 44 µM (inactive)
CCRF-CEM
  GI50: 56.4 µM (inactive)
COLO 205
  GI50: 19.1 µM (inactive)
DU-145
  GI50: 37.8 µM (inactive)
EKVX
  GI50: 16.1 µM (inactive)
HCC 2998
  GI50: 18.1 µM (inactive)
HCT-116
  GI50: 26.7 µM (inactive)
HCT-15
  GI50: 44.2 µM
HL-60
  GI50: > 100 µM (inactive)
HT-29
  GI50: 32.3 µM (inactive)
Hs-578T
  GI50: > 100 µM (inactive)
IGROV-1
  GI50: 10.6 µM (inactive)
K562
  GI50: > 100 µM (inactive)
KM12
  GI50: 16.8 µM (inactive)
LOX IMVI
  GI50: 35.9 µM (inactive)
M14
  GI50: 36.5 µM (inactive)
MCF7
  GI50: 24.8 µM (inactive)
MDA-MB-435
  GI50: 38.7 µM (inactive)
MDA-N
  GI50: 27.4 µM (inactive)
MOLT-4
  GI50: 86.5 µM (inactive)
NCI-H23
  GI50: 44.4 µM (inactive)
NCI-H460
  GI50: 27.9 µM (inactive)
NCI/ADR-RES
  GI50: 33.7 µM (inactive)
OVCAR-3
  GI50: 17.4 µM (inactive)
OVCAR-4
  GI50: 37 µM (inactive)
OVCAR-5
  GI50: 64.9 µM (inactive)
PC-3
  GI50: 25.8 µM (inactive)
RPMI-8226
  GI50: 81.7 µM (inactive)
RXF 393
  GI50: 46 µM (inactive)
SF-268
  GI50: 53.8 µM (inactive)
SF-295
  GI50: 53 µM (inactive)
SK-MEL-28
  GI50: 64.6 µM (inactive)
SK-MEL-5
  GI50: 14.8 µM (inactive)
SN12C
  GI50: 61.5 µM (inactive)
SNB-19
  GI50: > 100 µM (inactive)
SR
  GI50: 82.8 µM (inactive)
SW-620
  GI50: 67.3 µM (inactive)
U-251
  GI50: 85.7 µM (inactive)
UACC-257
  GI50: 50.1 µM (inactive)
UACC-62
  GI50: 31 µM (inactive)
UO-31
  GI50: 49.1 µM (inactive)

## Cc1nc2ccc(Cl)cc2c(-n2ccnc2)c1CCn1ccnc1
786-0
  GI50: 1.69 µM (inactive)
A498
  GI50: 21.5 µM (inactive)
A549
  GI50: 34.9 µM (inactive)
ACHN
  GI50: 15.7 µM (inactive)
BT-549
  GI50: 19.8 µM (inactive)
CAKI-1
  GI50: 63.1 µM (inactive)
CCRF-CEM
  GI50: 18 µM (inactive)
COLO 205
  GI50: 18 µM (inactive)
DU-145
  GI50: 31.9 µM (inactive)
HCC 2998
  GI50: 49.8 µM (inactive)
HCT-116
  GI50: 23.8 µM (inactive)
HCT-15
  GI50: 22.7 µM
HL-60
  GI50: 23.7 µM (inactive)
HOP-62
  GI50: 33.3 µM (inactive)
HOP-92
  GI50: 15.9 µM (inactive)
HT-29
  GI50: 17.3 µM (inactive)
Hs-578T
  GI50: 12.9 µM (inactive)
IGROV-1
  GI50: 26.1 µM (inactive)
K562
  GI50: 23.2 µM (inactive)
LOX IMVI
  GI50: 21 µM (inactive)
M14
  GI50: 27.8 µM (inactive)
MCF7
  GI50: 32.3 µM (inactive)
MDA-MB-231
  GI50: 17.8 µM (inactive)
MDA-MB-435
  GI50: 32.1 µM (inactive)
MDA-N
  GI50: 25.5 µM (inactive)
Malme-3M
  GI50: 31.1 µM (inactive)
NCI-H226
  GI50: 16.4 µM (inactive)
NCI-H23
  GI50: 27.1 µM (inactive)
NCI-H460
  GI50: 23.2 µM (inactive)
NCI-H522
  GI50: 22.4 µM (inactive)
NCI/ADR-RES
  GI50: 2.03 µM (inactive)
OVCAR-3
  GI50: 32.1 µM (inactive)
OVCAR-4
  GI50: 18.9 µM (inactive)
OVCAR-5
  GI50: 21.5 µM (inactive)
OVCAR-8
  GI50: 1.75 µM (inactive)
PC-3
  GI50: 22.1 µM (inactive)
RXF 393
  GI50: 14.1 µM (inactive)
SF-268
  GI50: 30.2 µM (inactive)
SF-295
  GI50: 34.2 µM (inactive)
SF-539
  GI50: 61.4 µM (inactive)
SK-MEL-28
  GI50: 29.9 µM (inactive)
SK-MEL-2
  GI50: 19.2 µM (inactive)
SK-MEL-5
  GI50: 20.7 µM (inactive)
SK-OV-3
  GI50: 31 µM (inactive)
SN12C
  GI50: 34 µM (inactive)
SNB-19
  GI50: 53.7 µM (inactive)
SNB-75
  GI50: 20 µM (inactive)
SR
  GI50: 0.678 µM (active)
SW-620
  GI50: 39.4 µM (inactive)
TK-10
  GI50: 30.2 µM (inactive)
U-251
  GI50: 40.5 µM (inactive)
UACC-257
  GI50: 18.8 µM (inactive)
UACC-62
  GI50: 16.3 µM (inactive)
UO-31
  GI50: 14.5 µM (inactive)
